Source: US6310037A, “Method of controlling protozoan infections using syringomycin-family lipodepsipeptides” (Utah State University, priority 1999, dated 2001)
Where “and” joins values, the source holds several entries; their conditions need not be identical. Equal entries are not always repeated. Where two headings read alike, the source gives them in different places. Where a SMILES comes first, the peptide text is derived from it. Bridges are numbered along the chain shown (N, C = ends). [ ]: non-standard residue; d: D form. The star is where a group is joined. Asp(3S-OH) = N[C@H](C(=O)O)[C@H](O)C(=O)O; Thr(4-Cl) = N[C@H](C(=O)O)[C@H](O)CCl; X1 = CCCCCCCCC[C@@H](O)CC(=O)*; dDab = NCC[C@@H](N)C(=O)O; Dab = NCC[C@H](N)C(=O)O; Dhb = C/C=C(\N)C(=O)O

Columns and labels:
C. parvum [1] = format: cell-based, C. parvum (bovine isolate); conditions: MDBK cells; for Infection % (Day 5) / Infection % (Day 2): % of untreated control; for Infection % (Day 2): mean ± SEM
Procedure: C. parvum (bovine isolate) oocysts used in this study were originally donated by the U.S. Department of Agriculture, Ames, Iowa. The oocysts were isolated from calf manure, preserved in 2.5% potassium dichromate at 4° C., and used within 3 months of purification. Oocysts were decontaminated by suspension in 20% (vol/vol) 1.05% sodium hypochlorite on ice for 20 minutes. Oocysts were then washed three times in Hanks' balanced salt solution ("HBSS") and once in RPMI 1640 (available from Sigma, St. Louis, Mo.). Release of sporozoites was achieved by incubating oocysts in an excystation solution consisting of 0.25% (wt/vol) trypsin (available from Sigma, St. Louis, Mo.) and 0.75% (wt/vol) taurodeoxycholic acid (available from Sigma) in HBSS. The resulting suspension was incubated at 37° C. for 45 minutes and microscopically observed to confirm sporozoite release. Sporozoites were completely separated from intact oocysts and oocyst walls by passage through sterile polycarbonate filters (3 micron pore size, available from Millipore Corp., Bedford, Mass.) twice prior to inoculation of bovine fallopian tube epithelial ("BFTE") cell monolayers.
Coverslips were removed at 5, 24, 48, 72, 96, and 120 hours from the inoculated wells containing monolayers of BFTE cells. The coverslips were washed in RPMI 1640, fixed in 100% methanol for 10 minutes, rinsed twice with 25 mM PBS, and stained with an indirect immunofluorescent assay (IFA) using monoclonal antibody (Mab) 5H11. Mab 5H11 specifically reacts with an antigen present on intermediate stages of C. parvum development. Coverslips were then mounted on glass slides and examined under oil immersion (1000×), using […] microscopy. Parasites were enumerated by counting all developmental stages of C. parvum present in a single scan (67 fields) through the center of each coverslip. The data were statistically compared for significance, using analysis of variance (Fischer's protected least-significant-difference test using a "STATVIEW" statistical analysis application developed by Abacus Concepts, Inc., Berkeley, Calif.).
(§1) Madin-Darby bovine kidney (MDBK) epithelial cells were also used to culture C. parvum in this study. Dulbecco's modified Eagle medium (DMEM) with 10% FBS was used for routine passage of MDBK cells purchased from American Type Collection for Culture (Rockville, Md.). Mycoplasma contamination was periodically checked with Hoechst staining (Uphoff et al., 1992). At confluence, MDBK cells were lifted from culture flasks with trypsin, enumerated, and redistributed to assay plates. Ninety-six well cell culture plates were employed to assess cytotoxicity of testing agents or the parasite or both to host cells using neutral red staining or lactic dehydrogenase (LDH) assay.
For enumeration of C. parvum development in culture, 24-well plates were used with a sterile glass coverslip placed in each well. DMEM base was used at and post C. parvum inoculation.
(§2) A single concentration of Syr-E at 15 μg/ml was used to treat MDBK cells at pH 7 with C. parvum infection. Group 1 served as an infection control, receiving no Syr-E treatment. Syr-E was administered 1 day prior to parasite inoculation to groups 2, 4, and 5, at the inoculation day to groups 3-5, and 1 day post inoculation to groups 3 and 5, respectively. Following specified administration day(s), supernatants of corresponding wells containing Syr-E were removed and replaced with fresh DMEM base. Cytotoxicity was monitored using lactic dehydrogenase (LDH) assay on day 1 post inoculation. Three coverslips from each group were collected on days 2 and 5 post inoculation, were fixed, and were stained with the specific IFA, as described with reference to Example II.
Therefore, MDBK cells were employed to explore the inhibitory effect of Syr-E on C. parvum development in vitro, as shown in FIG. 3. […]

MDBK cells = assay: Cytotoxicity of Syr-E to MDBK host cells (LDH assay, visual observation); format: cell-based, bovine; conditions: for Syr-E related cytotoxicity (LDH assay) compared to infected and untreated control: Syr-E 5, 10, 15, 20 μg/ml tested
Source text: as §1
A volume of 10 μl/well culture supernatant was pipetted into a 96-well plate and mixed with 50 μl/well substrate solution containing 0.75 mM sodium pyruvate and 1 mg beta-NADH/ml. Following incubation at 37° C. for 30 min, the plate was added with 50 μl of 2,4-dinitrophenylhydrazine/well and kept at 25° C. for 20 min., and then the plate was added with a volume of 200 μl/well of 0.6 N NaOH, mixed well, and retained at 25° C. for 10 min. prior to being quantified by the Microplate Autoreader with a wavelength set at 515 nm.
as §2
Group 1 received neither Syr-E treatment nor inoculation and its cytotoxicity was set at 0%, as illustrated on day 2. Group 2 received only C. parvum inoculation serving as an infection control. Groups 3-6 received both the inoculation and Syr-E treatments at 5, 10, 15, and 20 μg/ml, respectively. Data in FIG. 4 are presented as the means +/- standard errors of the mean. […] Cytotoxicity of Syr-E to host cells was measured using LDH assay on both days 1 and 2 post inoculation. More (P<0.01) cytotoxicity was shown on day 1 post inoculation than day 2 post inoculation. […] Overall, more cytotoxicity was observed as Syr-E concentrations increased.

C. parvum [2] = format: cell-based, C. parvum (bovine isolate); conditions: MDBK cells, day 2 post inoculation
[3] = Group 2: Syr-E 15 μg/ml, 1 day, prior to inoculation, pH 7
[4] = Group 3: Syr-E 15 μg/ml, 2 days, at and post inoculation, pH 7
[5] = Group 4: Syr-E 15 μg/ml, 2 days, prior to and at inoculation, pH 7
[6] = Group 5: Syr-E 15 μg/ml, 3 days, prior to, at, and post inoculation, pH 7

C/C=C1\NC(=O)[C@H](Cc2ccccc2)NC(=O)[C@H](CCCNC(=N)N)NC(=O)[C@H](CCN)NC(=O)[C@@H](CCN)NC(=O)[C@@H](CO)NC(=O)[C@@H](NC(=O)C[C@H](O)CCCCCCCCC)COC(=O)[C@H]([C@H](O)CCl)NC(=O)[C@H]([C@H](O)C(=O)O)NC1=O [Syr-E, Syringomycin-E] (X1-S[dS][dDab][Dab]RF[Dhb][Asp(3S-OH)][Thr(4-Cl)]; ester 1-C)
Infection % (Day 5) (C. parvum [1]; [3]): 22% and 21.9%
Infection % (Day 2) (C. parvum [1]; [3]): 13% and 12.9 ± 2.7%
Infection % (Day 5) (C. parvum [1]; [4]): 11.7%
Infection % (Day 2) (C. parvum [1]; [4]): 10.2 ± 2.1%
Infection % (Day 5) (C. parvum [1]; [5]): 1.4%
Infection % (Day 2) (C. parvum [1]; [5]): 1.1 ± 0.2%
Infection % (Day 5) (C. parvum [1]; [6]): 1.0%
Infection % (Day 2) (C. parvum [1]; [6]): 0.9 ± 0.1%
infection percentage of the untreated control (C. parvum [1]; Syr-E 15 μg/ml, day 5 post inoculation): 14.7%
infection percentage (C. parvum [1]; Syr-E 15 μg/ml, treatment prior to and at the inoculation, pH 7, day not given): approximately 1%
visual cell damage (MDBK cells; Syr-E 15 μg/ml, MDBK cells, pH 7, Table 1 schedule): no visual cell damage observed
cytotoxicity by LDH assay, treatment schedule groups vs untreated control (MDBK cells; Syr-E 15 μg/ml, MDBK cells, pH 7, day 1 post inoculation, Table 1 schedule): failed to show significant differences between groups except group 3
visible cell damage on cell monolayers (MDBK cells; Syr-E 5-20 μg/ml, MDBK cells, pH 7.0): No obvious cell peeling or plaques formed on cell monolayers
Syr-E related cytotoxicity (LDH assay) compared to infected and untreated control (MDBK cells; pH 7.0, day 1 post inoculation): cytotoxicity appeared at 20 μg/ml on day 1 post inoculation
Syr-E related cytotoxicity (LDH assay) compared to infected and untreated control (MDBK cells; pH 7.0, day 2 post inoculation): 15 and 20 μg/ml on day 2 post inoculation
infection percentage compared to the untreated control (C. parvum [2]; Syr-E 5.0 μg/ml): significantly (P<0.05) reduced the infection percentage
inhibition of parasite growth and development (C. parvum [2]; Syr-E 20 μg/ml): 99.5%
